Values quoted from earlier work in patent publication US12458625B2, “Methods and compositions for soft anticholinergic esters” (Bodor Laboratories, Inc., priority 2015, dated 2025).

Details: solid oral form

C[N+]1(C)CCC(OC(=O)C(O)(c2ccccc2)C2CCCC2)C1 (stereo not drawn) [glycopyrrolate]
reducing drooling (children): effective in reducing drooling | dropped out of the study because of adverse effects to the medication (children, most with cerebral palsy): over 20% | children affected by adverse events (most with cerebral palsy): 69%
